Results taken from PubChem BioAssay AID651672 (The Scripps Research Institute Molecular Screening Center, 2012).
Active and inactive are the calls of the source. The rule behind the calls is not given here.

Target: Perilipin-1 (Homo sapiens) (UniProt O60240)
Assay: ABHD5 and perilipin-1 interaction blockers – biochemical, luminescence, counter-screen for ABHD5-PLIN5 interaction inhibitor project, dose response (AID 651672);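 note: split Gaussia luciferase complementation between ABHD5 and PLIN1 fusion fragments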
Conditions: ABHD5-PLIN1 interaction

Chain of Perilipin-1 (Homo sapiens) (O60240 whole entry, looked up, the tested form may be a part): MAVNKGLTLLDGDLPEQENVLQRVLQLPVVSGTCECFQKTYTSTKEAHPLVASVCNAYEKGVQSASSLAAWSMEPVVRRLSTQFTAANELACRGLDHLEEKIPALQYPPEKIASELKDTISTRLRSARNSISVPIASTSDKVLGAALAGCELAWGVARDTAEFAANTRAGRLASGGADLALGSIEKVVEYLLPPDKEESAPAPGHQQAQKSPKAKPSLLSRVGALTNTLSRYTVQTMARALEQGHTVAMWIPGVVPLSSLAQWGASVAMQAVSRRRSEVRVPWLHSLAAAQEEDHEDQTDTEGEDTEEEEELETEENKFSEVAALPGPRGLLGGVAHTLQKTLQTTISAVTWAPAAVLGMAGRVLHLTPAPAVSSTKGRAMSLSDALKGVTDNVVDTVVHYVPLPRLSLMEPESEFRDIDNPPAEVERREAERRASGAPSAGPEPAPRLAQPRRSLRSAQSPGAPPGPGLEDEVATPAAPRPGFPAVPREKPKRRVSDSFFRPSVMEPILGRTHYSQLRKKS

Compound | IC50
O=C(NCc1ccccc1)C(c1ccc(-c2ccccc2)cc1)n1c(=O)c(-c2ccco2)nc2ccccc21 (centres undefined) | 3440 nM
CN(C)CCOc1ccc(-c2c(-c3ccccc3)sc3ccccc23)cc1 | inactive
CC(C)(C)NC(=O)C(c1ccncc1)n1c(=O)c(-c2ccco2)nc2ccccc21 (centres undefined) | 2420 nM
COc1ccc(C)c2sc(N(CCN(C)C)C(=O)/C=C/c3cccs3)nc12 | inactive
CSc1nnc(NC(=O)c2nc(S(=O)(=O)Cc3cccc(C)c3)ncc2Cl)s1 | 2700 nM
CCCCOC(=O)Nc1cc(C(=O)OC)ccc1C(=O)OC | 6030 nM
COc1ccc(NC(=O)C(c2ccc(OC)cc2)n2c(=O)c(-c3ccco3)nc3ccccc32)cc1 (centres undefined) | 7700 nM
Cc1ccc2c(CC(=O)N3CCN(S(=O)(=O)c4ccc5c(c4)OCCO5)CC3)coc2c1 | 5110 nM
Cc1ccc(NC(=O)CSc2nnc(-c3ccco3)c(-c3ccco3)n2)cc1 | 2660 nM
COc1ccc(-c2cc(N)n(S(=O)(=O)c3c(F)c(F)c(F)c(F)c3F)n2)cc1OC | 9950 nM
O=C(/C=C/c1ccc(NC(=O)c2ccccc2-c2ccccc2C(=O)O)cc1)c1ccccc1 | 8030 nM
c1ccc(CCC2=NCCn3cccc32)cc1 | inactive
Cc1ccc(O)c(C(=O)C=Cc2ccccc2)c1 | 2460 nM
O=C(Nc1ccc(Cl)cc1)/C(=C/c1cccc(O)c1)c1nc2ccccc2s1 | 1680 nM
CC1=CC(C)(C)Nc2ccc(OC(=O)CN3C(=O)c4cccc5cccc(c45)C3=O)cc21 | 6420 nM
COc1ccc(C(C(=O)NC2CCCCC2)n2c(=O)c(-c3ccco3)nc3ccccc32)cc1 (centres undefined) | 1270 nM
CC(C)(C)NC(=O)C(c1cc2ccccc2o1)n1c(=O)c(-c2ccco2)nc2ccccc21 (centres undefined) | 1930 nM
N#Cc1ncc(Cc2ccccc2)nc1C#N | inactive
Cc1ccc(C(=O)c2coc3c2C(=O)C(=O)c2ccccc2-3)cc1 | 3880 nM
O=C(Nc1ccc2c(c1)OCCO2)C(c1ccnc2ccccc12)n1c(=O)c(-c2ccco2)nc2ccccc21 (centres undefined) | inactive
COc1ccc(NC(=O)C(c2ccnc3ccccc23)n2c(=O)c(-c3ccco3)nc3ccccc32)cc1 (centres undefined) | 4760 nM
O=C(NC1CCCCC1)C(c1ccc(C(F)(F)F)cc1)n1c(=O)c(-c2ccco2)nc2ccccc21 (centres undefined) | 1670 nM
O=C(NC1CCCCC1)C(c1cccc2ccccc12)n1c(=O)c(-c2ccco2)nc2ccccc21 (centres undefined) | 1220 nM
O=C(Nc1ccc2c(c1)OCCO2)C(c1ccccc1F)n1c(=O)c(-c2ccco2)nc2ccccc21 (centres undefined) | 9210 nM
CCN(CC)CCOCCOC(=O)C1(c2ccccc2)CCCC1 | 1870 nM

Compound | IC50
N#Cc1ccc(C(C(=O)NC2CCCCC2)n2c(=O)c(-c3ccco3)nc3ccccc32)cc1 (centres undefined) | 1920 nM
CSc1nnc(NC(=O)c2nc(S(=O)(=O)Cc3ccc(C)cc3)ncc2Cl)s1 | 3100 nM
O=CC1=C(c2ccccc2)Oc2ccccc2O1 | 2570 nM
COc1ccc(C(C(=O)Nc2c(C)cccc2C)n2c(=O)c(-c3ccco3)nc3ccccc32)cc1 (centres undefined) | 1880 nM
COC(=O)c1ccc(Cn2cc(/C=C\[N+](=O)[O-])c3ccccc32)o1 | > 13300 nM (inactive)
COC(=O)c1cc(=O)n(Cc2ccco2)c(=Nc2ccc(F)cc2)s1 | 3190 nM
CCN1/C(=C/C=C/c2oc3ccc(-c4ccccc4)cc3[n+]2CC)Oc2ccc(-c3ccccc3)cc21 | 1240 nM
Cc1cccc(C)c1NC(=O)C(c1ccc(-c2ccccc2)cc1)n1c(=O)c(-c2ccco2)nc2ccccc21 (centres undefined) | 1480 nM
Cc1ccc(/C(O)=C2/C(=O)C(=O)OC2c2ccc(Cl)cc2)cc1 (centres undefined) | 9380 nM
CCCCCNC(=O)C(C1CC1)n1c(=O)c(-c2ccco2)nc2ccccc21 (centres undefined) | 6580 nM
CC(=O)Cc1cc(O)c2ccccc2c1OC(=O)c1ccccc1 | 2630 nM
CC1CCN(S(=O)(=O)c2ccc(NC(=O)Cc3cccs3)cc2)CC1 | 7020 nM
CC(C)(C)NC(=O)C(c1ccccc1)n1c(=O)c(-c2ccco2)nc2ccccc21 (centres undefined) | 2040 nM
Cc1cccc(C)c1NC(=O)C(c1cccc2ccccc12)n1c(=O)c(-c2ccco2)nc2ccccc21 (centres undefined) | 2400 nM
O=C1C(=O)c2c(C(=O)c3ccccc3)coc2-c2ccccc21 | 4970 nM
CCCCC(=O)NC(c1cccc([N+](=O)[O-])c1)c1ccc2cccnc2c1O (centres undefined) | inactive
O=C1/C(=C/c2cccnc2)CC/C1=C\c1cccnc1 | 5830 nM
CCOC(=O)c1c(NC(=O)/C=C/C(=O)O)sc(C)c1-c1ccc(C(C)(C)C)cc1 | 4810 nM
CCSc1nnc(NC(=O)c2nc(S(=O)(=O)Cc3ccc(F)cc3)ncc2Cl)s1 | 2680 nM
CCCCCNC(=O)C(c1ccc(C#N)cc1)n1c(=O)c(-c2ccco2)nc2ccccc21 (centres undefined) | 2980 nM
CCN(CCCc1ccccc1)CCCc1ccccc1 | 2260 nM
CN(C)CCCNC(=O)c1ccc(-c2nc(-c3ccc(Cl)cc3)cs2)cc1 | inactive
CCN1C/C(=C/c2ccc(OC)c(O)c2)C(=O)/C(=C/c2ccc(OC)c(O)c2)C1 | 7540 nM
CSc1nnc(NC(=O)c2nc(S(=O)(=O)Cc3ccccc3F)ncc2Cl)s1 | 2160 nM
